Patent publication US10758583B2, “Processed food and pharmaceutical composition having watermelon sprout-derived substances as main ingredients” (KINKI UNIVERSITY, priority 2016, dated 2020)

Legend:
Cyclin A = test: Western blot of Cyclin A protein expression in Jurkat cells in S phase; assay type: cell-based, human; details: Phytol(+) vs Phytol(−), n=5, p<0.01 (FIG. 9)
Description: Next, the growth inhibition of the Jurkat cells caused by phytol and lutein was further investigated. As shown in FIG. 6 and FIG. 7, the growth inhibition of the Jurkat cells was caused by the induction of the cell cycle arrest in the S phase during cell division. Thus, it was further investigated how phytol induced the cell cycle arrest in the S phase. Specifically, protein expression of a molecule that controls the S phase of the cell cycle was examined by a Western blot method. […] Results of Cyclin A and β-Actin are shown with a phytol treatment (Phytol(+)) and without a phytol treatment (Phytol(−)). Further, in FIG. 9(b), the result of the Western blot shown in FIG. 9(a) was subjected to background correction using an image analysis software imageJ and then subjected to a densitometry analysis to obtain a ratio of a band density of Cyclin A relative to that of β-Actin. In evaluating data, a value of Phytol(+) was calculated by taking a value of Phytol(−) as 1 and represented as a mean±standard deviation (n=5). Comparison between Phytol(−) and Phytol(+) was tested by a Tukey-Kramer method (p<0.01).

[1] = test system: human normal lymphoid cell; test: Effect on growth of human normal lymphoid cell (trypan blue count); assay type: cell-based; details: stated with reference to FIG. 8
[2] = test system: human T-cell leukemia cell line Jurkat cell; test: Growth of Jurkat cells, live cell count by trypan blue staining; assay type: cell-based; details: for growth inhibitory activity of isolated components on Jurkat cells: 10, 25 and 50 μM, cells counted after 24, 48, 72 hours (FIG. 7); for IC50: Homo sapiens, Jurkat, isolated components, FIG. 7, read-out: IC50 in the inhibition of the growth of the Jurkat cells
Protocol: A human T-cell leukemia cell line Jurkat cell was obtained from the Independent Administrative Institution RIKEN BioResource Center (Tsukuba-shi, Ibaraki-ken). The cell was cultured in a RPMI 1640 medium (Wako Pure Chemical Industries, Ltd., Osaka-shi, Osaka-fu) containing 10% fetal bovine serum (Thermo Fisher Scientifics, K.K., MA, USA), 100 U/mL penicillin, and 100 μg/mL streptomycin (both from Life Technologies, Carlsbad, Calif., USA) at 37° C. in an environment of 95% air and 5% CO2.
The Jurkat cells were adjusted to 1×10^5 cells/mL and seeded in a 24-well multi-well plate (Thermo Fisher Scientifics, K.K.) by 500 μL per well. […] At 24, 48, and 72 hours after the sample treatment, the cells were stained with trypan blue (Life Technologies) to count live cells using a hemacytometer.
These components were examined for the growth inhibitory effect on the Jurkat cells. The Jurkat cells were treated with each component at final concentrations of 10, 25, and 50 μM and the number of cells was counted after 24, 48, and 72 hours.

SMILES | expression of Cyclin A (band relative to β-Actin) (Cyclin A) | growth inhibitory effect on the normal cell [1] | growth inhibitory activity of isolated components on Jurkat cells [2] | IC50 [2]
C/C(=C\CO)CCC[C@H](C)CCC[C@H](C)CCCC(C)C [phytol, Phytol] | suppressed | does not exhibit the growth inhibitory effect | significant growth inhibitory activity | 12.8 µM
CC(C)C/C=C/[C@@H](C)[C@H]1CC[C@H]2[C@@H]3CC=C4C[C@@H](O)CC[C@]4(C)[C@H]3CC[C@]12C [22-dehydrocholesterol] |  |  | hardly inhibited the growth of the Jurkat cells | 
CC1=C[C@H](O)CC(C)(C)[C@H]1/C=C/C(C)=C/C=C/C(C)=C/C=C/C=C(C)/C=C/C=C(C)/C=C/C1=C(C)C[C@@H](O)CC1(C)C [lutein] |  |  | significant growth inhibitory activity | 22.6 µM
